Measurements as given in patent publication US20110201016A1, “METHOD FOR DETECTING MODULATOR FOR REGULATING ACTIVITY OF CELLULAR COMPONENT IN CELL” (MEDISCOV INC., priority 2010, published 2011).

Columns and labels:
BLK [1] = target: T1, BLK (Homo sapiens, UniProt P51451, G2A); test: Binding of dasatinib-magnetic substance to EGFP-labelled kinase in cells (magnetic pattern co-localization); assay type: cell-based; settings: BLK-EGFP (G2A) in HeLa cells; dasatinib-biotin coated on streptavidin magnetic substance; magnetic field
T1 construct: the ORF without the stop codon was amplified for each gene by PCR; expressed in transfected cells; host or cells: HeLa
Excerpt: (§1) Bioconjug. […] Adv. Mater. […] J. Am. Chem. Soc. 130, 16466].
(§2) J. Am. Chem. Soc. 130, 16466].
(§3) Nature 255: 706]. […] J. Am. Chem. Soc. 130, 16466].
(§4) The result is illustrated in FIG. 2.

LYN [2] = target: T2, LYN (Homo sapiens, UniProt P07948, G2A); test: as above; assay type: cell-based; settings: LYN-EGFP (G2A) in HeLa cells; dasatinib-biotin coated on streptavidin magnetic substance; magnetic field
T2 construct: the ORF without the stop codon was amplified for each gene by PCR; expressed in transfected cells; host or cells: HeLa
Excerpt: as §1, §2, §3, §4

RIPK2 [3] = target: T3, RIPK2 (Homo sapiens, UniProt O43353); test: as above; assay type: cell-based; settings: RIPK2-EGFP in HeLa cells; dasatinib-biotin coated on streptavidin magnetic substance; magnetic field
T3 construct: the ORF without the stop codon was amplified for each gene by PCR; expressed in transfected cells; host or cells: HeLa
Excerpt: as §1, §2, §3, §4

SNF1LK [4] = target: T4, SNF1LK (Homo sapiens, UniProt P57059); test: as above; assay type: cell-based; settings: SNF1LK-EGFP in HeLa cells; dasatinib on magnetic substance; no reactive competitor
T4 construct: the ORF without the stop codon was amplified for each gene by PCR and then cloned into an expression vector; expressed in transfected cells; host or cells: HeLa
Excerpt: as §1, §2, §3

BLK [5] = target: T1, BLK; test: Competition reaction with dasatinib-magnetic substance for EGFP-labelled kinase in cells; assay type: cell-based; settings: BLK-EGFP in HeLa cells; 10 μM reactive competitor for 30 minutes to 2 hours
LYN [6] = target: T2, LYN; test: as above; assay type: cell-based; settings: LYN-EGFP in HeLa cells; 10 μM reactive competitor for 30 minutes to 2 hours
KIT = target: T5, KIT (Homo sapiens, UniProt P10721); test: as above; assay type: cell-based; settings: KIT-EGFP in HeLa cells; 10 μM reactive competitor for 30 minutes to 2 hours
T5 construct: only the region of the amino acids 545 to 976 was amplified by PCR; expressed in transfected cells; host or cells: HeLa

RIPK2 [7] = target: T3, RIPK2; test: as above; assay type: cell-based; settings: RIPK2-EGFP in HeLa cells; 10 μM reactive competitor for 30 minutes to 2 hours
SNF1LK [8] = target: T4, SNF1LK; test: as above; assay type: cell-based; settings: SNF1LK-EGFP in HeLa cells; 10 μM reactive competitor for 30 minutes to 2 hours
ABL2 [9] = test: as above; settings: EGFP-ABL2 in HeLa cells; 10 μM reactive competitor for 30 minutes to 2 hours
CSK [10] = target: T6, CSK (Homo sapiens, UniProt P41240); test: as above; settings: CSK-EGFP in HeLa cells; 10 μM reactive competitor for 30 minutes to 2 hours
FGR [11] = target: T7, FGR (Homo sapiens, UniProt P09769, G2A); test: as above; settings: FGR-EGFP in HeLa cells; 10 μM reactive competitor for 30 minutes to 2 hours
MAPK14 [12] = target: T8, MAPK14 (Homo sapiens, UniProt Q16539); test: as above; settings: MAPK14-EGFP in HeLa cells; 10 μM reactive competitor for 30 minutes to 2 hours
ABL2 [13] = test: Binding of dasatinib-magnetic substance to EGFP-labelled kinase in cells (magnetic pattern co-localization); settings: EGFP-ABL2 in HeLa cells; dasatinib-biotin coated on streptavidin magnetic substance; magnetic field
CSK [14] = target: T6, CSK; test: as above; settings: CSK-EGFP in HeLa cells; dasatinib-biotin coated on streptavidin magnetic substance; magnetic field
FGR [15] = target: T7, FGR; test: as above; settings: FGR-EGFP (G2A) in HeLa cells; dasatinib-biotin coated on streptavidin magnetic substance; magnetic field
MAPK14 [16] = target: T8, MAPK14; test: as above; settings: MAPK14-EGFP in HeLa cells; dasatinib on magnetic substance; no reactive competitor

T6 sequence (P41240 whole entry): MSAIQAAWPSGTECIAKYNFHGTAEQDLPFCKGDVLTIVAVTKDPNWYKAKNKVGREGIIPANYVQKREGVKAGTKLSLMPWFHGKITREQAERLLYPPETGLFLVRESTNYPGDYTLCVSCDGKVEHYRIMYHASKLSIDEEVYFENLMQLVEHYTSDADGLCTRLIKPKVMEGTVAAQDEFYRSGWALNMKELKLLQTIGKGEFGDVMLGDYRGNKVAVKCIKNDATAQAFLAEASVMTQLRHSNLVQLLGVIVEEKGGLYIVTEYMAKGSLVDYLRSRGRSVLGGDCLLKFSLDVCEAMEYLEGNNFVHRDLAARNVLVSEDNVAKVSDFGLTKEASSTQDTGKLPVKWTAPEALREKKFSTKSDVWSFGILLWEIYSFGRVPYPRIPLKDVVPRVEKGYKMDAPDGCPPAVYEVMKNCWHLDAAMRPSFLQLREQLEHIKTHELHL
T3 sequence (O43353 whole entry): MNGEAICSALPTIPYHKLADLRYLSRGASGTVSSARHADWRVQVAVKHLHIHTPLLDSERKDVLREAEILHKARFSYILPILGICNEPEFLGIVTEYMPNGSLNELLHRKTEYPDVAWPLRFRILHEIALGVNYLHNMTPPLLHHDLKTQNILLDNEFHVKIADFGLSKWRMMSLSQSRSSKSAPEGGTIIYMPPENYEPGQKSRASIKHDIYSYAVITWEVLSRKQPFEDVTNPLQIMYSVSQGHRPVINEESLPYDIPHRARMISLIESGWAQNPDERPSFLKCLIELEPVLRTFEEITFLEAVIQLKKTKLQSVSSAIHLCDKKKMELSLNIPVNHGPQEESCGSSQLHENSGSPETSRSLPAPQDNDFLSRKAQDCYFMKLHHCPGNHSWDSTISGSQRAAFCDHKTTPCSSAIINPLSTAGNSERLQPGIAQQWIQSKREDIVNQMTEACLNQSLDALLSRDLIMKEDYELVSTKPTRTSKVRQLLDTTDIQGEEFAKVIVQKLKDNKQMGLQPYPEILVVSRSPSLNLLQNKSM
T8 sequence (Q16539 1-360 isoform Q16539-2): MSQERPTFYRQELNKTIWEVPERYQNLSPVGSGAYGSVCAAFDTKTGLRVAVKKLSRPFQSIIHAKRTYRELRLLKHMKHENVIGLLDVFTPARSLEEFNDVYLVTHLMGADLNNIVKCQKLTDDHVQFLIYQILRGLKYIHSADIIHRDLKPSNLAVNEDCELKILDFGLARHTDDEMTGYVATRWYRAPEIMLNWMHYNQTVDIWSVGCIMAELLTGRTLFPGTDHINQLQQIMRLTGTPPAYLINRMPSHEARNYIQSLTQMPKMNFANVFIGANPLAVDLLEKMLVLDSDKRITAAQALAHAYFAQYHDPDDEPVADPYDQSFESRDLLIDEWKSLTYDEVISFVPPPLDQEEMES
T5 sequence (P10721 545-976): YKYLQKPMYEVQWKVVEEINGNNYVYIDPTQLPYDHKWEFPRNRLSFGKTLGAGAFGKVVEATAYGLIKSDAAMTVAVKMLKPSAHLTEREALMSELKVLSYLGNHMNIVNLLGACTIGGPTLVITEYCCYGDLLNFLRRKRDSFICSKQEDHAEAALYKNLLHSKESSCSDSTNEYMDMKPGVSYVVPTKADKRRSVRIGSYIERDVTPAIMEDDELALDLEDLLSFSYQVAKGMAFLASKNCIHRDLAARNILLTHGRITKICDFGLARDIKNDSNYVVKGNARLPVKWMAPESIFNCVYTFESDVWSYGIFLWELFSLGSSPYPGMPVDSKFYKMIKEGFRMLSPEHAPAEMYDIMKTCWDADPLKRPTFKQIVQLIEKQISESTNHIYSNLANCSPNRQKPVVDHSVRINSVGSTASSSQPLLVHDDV
T1 sequence (P51451 whole entry G2A): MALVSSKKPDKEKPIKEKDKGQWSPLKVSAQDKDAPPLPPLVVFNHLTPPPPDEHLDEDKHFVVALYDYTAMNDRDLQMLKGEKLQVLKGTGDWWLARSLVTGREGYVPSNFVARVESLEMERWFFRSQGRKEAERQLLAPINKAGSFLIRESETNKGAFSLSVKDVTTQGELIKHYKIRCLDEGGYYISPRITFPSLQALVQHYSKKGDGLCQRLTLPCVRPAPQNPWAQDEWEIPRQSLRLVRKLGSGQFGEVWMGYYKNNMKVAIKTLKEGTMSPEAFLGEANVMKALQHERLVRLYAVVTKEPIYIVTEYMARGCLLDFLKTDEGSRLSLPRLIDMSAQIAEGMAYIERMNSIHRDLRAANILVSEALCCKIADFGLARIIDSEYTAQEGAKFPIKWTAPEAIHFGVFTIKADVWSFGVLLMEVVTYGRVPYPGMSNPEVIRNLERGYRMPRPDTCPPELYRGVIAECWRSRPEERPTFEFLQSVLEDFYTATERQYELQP
T4 sequence (P57059 whole entry): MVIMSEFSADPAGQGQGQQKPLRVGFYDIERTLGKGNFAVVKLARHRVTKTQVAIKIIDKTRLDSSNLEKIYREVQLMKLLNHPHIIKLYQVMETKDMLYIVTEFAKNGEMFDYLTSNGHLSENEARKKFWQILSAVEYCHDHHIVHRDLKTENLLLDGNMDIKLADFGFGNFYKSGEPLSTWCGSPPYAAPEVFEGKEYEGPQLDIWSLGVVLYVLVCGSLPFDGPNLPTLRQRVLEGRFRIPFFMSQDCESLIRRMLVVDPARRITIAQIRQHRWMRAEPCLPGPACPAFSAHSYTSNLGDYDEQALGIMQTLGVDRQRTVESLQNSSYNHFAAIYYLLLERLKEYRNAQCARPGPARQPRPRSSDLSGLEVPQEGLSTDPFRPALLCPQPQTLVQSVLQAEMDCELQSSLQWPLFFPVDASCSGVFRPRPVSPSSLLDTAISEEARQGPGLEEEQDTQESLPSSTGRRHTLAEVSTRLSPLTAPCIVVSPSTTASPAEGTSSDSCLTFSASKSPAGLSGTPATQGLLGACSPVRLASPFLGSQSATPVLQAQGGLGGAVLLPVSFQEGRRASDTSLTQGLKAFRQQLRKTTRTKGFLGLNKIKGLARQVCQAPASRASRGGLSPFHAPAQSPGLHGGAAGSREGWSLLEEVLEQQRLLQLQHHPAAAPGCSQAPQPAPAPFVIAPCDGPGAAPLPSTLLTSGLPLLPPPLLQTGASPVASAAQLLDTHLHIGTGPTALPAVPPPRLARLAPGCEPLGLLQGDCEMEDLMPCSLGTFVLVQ
T2 sequence (P07948 1-491 isoform P07948-2 G2A): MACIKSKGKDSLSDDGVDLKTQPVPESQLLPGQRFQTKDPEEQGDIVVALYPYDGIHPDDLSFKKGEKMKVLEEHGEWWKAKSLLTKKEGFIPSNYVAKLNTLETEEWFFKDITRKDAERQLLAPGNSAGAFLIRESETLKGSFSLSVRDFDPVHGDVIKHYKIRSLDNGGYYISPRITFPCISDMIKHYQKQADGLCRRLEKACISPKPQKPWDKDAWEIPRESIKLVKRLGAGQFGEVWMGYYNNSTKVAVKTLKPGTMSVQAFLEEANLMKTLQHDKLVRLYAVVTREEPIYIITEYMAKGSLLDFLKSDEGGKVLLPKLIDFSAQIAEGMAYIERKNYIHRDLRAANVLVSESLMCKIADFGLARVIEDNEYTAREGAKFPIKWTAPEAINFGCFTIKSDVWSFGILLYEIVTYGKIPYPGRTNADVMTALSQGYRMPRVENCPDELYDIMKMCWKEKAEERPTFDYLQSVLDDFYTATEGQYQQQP

| Structure (SMILES) | fluorescent pattern of kinase-EGFP overlapped with magnetization pattern (binding) (BLK [1]) | fluorescent pattern of kinase-EGFP overlapped with magnetization pattern (binding) (LYN [2]) | fluorescent pattern of kinase-EGFP overlapped with magnetization pattern (binding) (RIPK2 [3]) | fluorescent pattern of kinase-EGFP overlapped with magnetization pattern (binding) (SNF1LK [4]) | competition with dasatinib-magnetic substance: fluorescent pattern overlapped with magnetization pattern (BLK [5]) | competition with dasatinib-magnetic substance: fluorescent pattern overlapped with magnetization pattern (LYN [6]) | competition with dasatinib-magnetic substance: fluorescent pattern overlapped with magnetization pattern (KIT) | competition with dasatinib-magnetic substance: fluorescent pattern overlapped with magnetization pattern (RIPK2 [7]) | competition with dasatinib-magnetic substance: fluorescent pattern overlapped with magnetization pattern (SNF1LK [8]) | competition with dasatinib-magnetic substance: fluorescent pattern overlapped with magnetization pattern (ABL2 [9]) | competition with dasatinib-magnetic substance: fluorescent pattern overlapped with magnetization pattern (CSK [10]) | competition with dasatinib-magnetic substance: fluorescent pattern overlapped with magnetization pattern (FGR [11]) | competition with dasatinib-magnetic substance: fluorescent pattern overlapped with magnetization pattern (MAPK14 [12]) | fluorescent pattern of kinase-EGFP overlapped with magnetization pattern (binding) (ABL2 [13]) | fluorescent pattern of kinase-EGFP overlapped with magnetization pattern (binding) (CSK [14]) | fluorescent pattern of kinase-EGFP overlapped with magnetization pattern (binding) (FGR [15]) | fluorescent pattern of kinase-EGFP overlapped with magnetization pattern (binding) (MAPK14 [16]) |
| --- | --- | --- | --- | --- | --- | --- | --- | --- | --- | --- | --- | --- | --- | --- | --- | --- | --- |
| Cc1nc(Nc2ncc(C(=O)Nc3c(C)cccc3Cl)s2)cc(N2CCN(CCO)CC2)n1 [dasatinib, N-(2-chloro-6-methyl-phenyl)-2-(6-(4-(2-hydroxyethyl)-piperazin-1-yl)-2-methylpyrimidin-4-ylamino)thiazole-5-carboxamide] | showed the fluorescent patterns aligned in a magnetized direction | showed the fluorescent patterns aligned in a magnetized direction | showed the fluorescent patterns aligned in a magnetized direction | interacted | fluorescent pattern overlapped with an induced magnetization pattern of the magnetic substances was not observed | fluorescent pattern overlapped with an induced magnetization pattern of the magnetic substances was not observed | fluorescent pattern overlapped with an induced magnetization pattern of the magnetic substances was not observed | fluorescent pattern overlapped with an induced magnetization pattern of the magnetic substances was not observed | fluorescent pattern overlapped with an induced magnetization pattern of the magnetic substances was not observed | fluorescent pattern overlapped with an induced magnetization pattern of the magnetic substances was not observed | fluorescent pattern overlapped with an induced magnetization pattern of the magnetic substances was not observed | fluorescent pattern overlapped with an induced magnetization pattern of the magnetic substances was not observed | fluorescent pattern overlapped with an induced magnetization pattern of the magnetic substances was not observed | showed the fluorescent patterns aligned in a magnetized direction | showed the fluorescent patterns aligned in a magnetized direction | showed the fluorescent patterns aligned in a magnetized direction | interacted |
| Cc1ccc(NC(=O)c2ccc(CN3CCN(C)CC3)cc2)cc1Nc1nccc(-c2cccnc2)n1 [imatinib] |  |  |  |  |  |  | interacts |  |  |  |  |  |  |  |  |  |  |
